# Read-outs that look alike come from different tables or passages of the source. Positions of bridges follow the written chain, without caps; N, C: chain ends. Non-standard residues stand in square brackets, D forms with d. Residues, ends and D or L forms follow the SMILES beside them. ξ: configuration not given here. d(cisHyp) = O=C(O)[C@H]1C[C@@H](O)CN1; Bta = N[C@@H](Cc1csc2ccccc12)C(=O)O; Hyp = O=C(O)[C@@H]1C[C@@H](O)CN1; NMeF = CN[C@@H](Cc1ccccc1)C(=O)O; dHyp = O=C(O)[C@H]1C[C@H](O)CN1; Ile(3ξ) = CCC(C)[C@H](N)C(=O)O; NMehSer = CN[C@@H](CCO)C(=O)O; NMeNle = CCCC[C@H](NC)C(=O)O; NMeA = CN[C@@H](C)C(=O)O; Dab = NCC[C@H](N)C(=O)O; Dap = NC[C@H](N)C(=O)O; ξC = NC(CS)C(=O)O; Sar = CNCC(=O)O
# Legend:
# Human PD-L1/PD-1 = molecular target: T1, Human PD-L1/PD-1 (Homo sapiens, UniProt Q9NZQ7); assay: HTRF PD-1-Ig/PD-L1-His binding assay (human PD-L1); details: cluster symbol; read-out: HTRF IC50 cluster
# T1 construct: made in house; host or cells: HEK293T
# Procedure, shortened: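 Ig- and His-fused extracellular PD-1/PD-L1 binding in BSA/Tween-20 dPBS. HTRF with Eu anti-Ig (1 nM final) and APC anti-His (20 nM final).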
# [1] = molecular target: T2, LK35.2-hPD-L1 cells / PE-labeled PD-1-Ig (Homo sapiens, UniProt Q9NZQ7); assay: LK35.2-hPD-L1 cell binding high-content screening assay; format: cell-based; details: cluster symbol, read-out: CBA IC50 cluster
# T2 construct: expressed in transfected cells; host or cells: LK35.2 mouse B cell line
# Procedure, shortened: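 Using overnight-cultured LK35.2-hPD-L1 mouse B cells, compound was co-incubated with phycoerythrin-tagged human PD-1-Ig (final 1 nM) at 37 °C for one hour. Unbound label was removed by triple dPBS washing prior to high-content image acquisition and analysis.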
# [2] = cell binding assay, cell line not given
# T2 sequence (Q9NZQ7 19-290): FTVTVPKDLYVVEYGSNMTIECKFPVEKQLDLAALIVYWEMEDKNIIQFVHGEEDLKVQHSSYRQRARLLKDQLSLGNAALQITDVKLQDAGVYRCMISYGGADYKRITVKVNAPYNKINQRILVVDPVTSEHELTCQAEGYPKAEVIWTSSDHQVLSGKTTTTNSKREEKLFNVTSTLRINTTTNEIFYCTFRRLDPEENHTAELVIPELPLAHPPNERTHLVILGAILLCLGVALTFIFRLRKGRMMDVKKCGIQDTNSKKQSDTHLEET
# T1 sequence (Q9NZQ7 with tags, fused parts or gaps): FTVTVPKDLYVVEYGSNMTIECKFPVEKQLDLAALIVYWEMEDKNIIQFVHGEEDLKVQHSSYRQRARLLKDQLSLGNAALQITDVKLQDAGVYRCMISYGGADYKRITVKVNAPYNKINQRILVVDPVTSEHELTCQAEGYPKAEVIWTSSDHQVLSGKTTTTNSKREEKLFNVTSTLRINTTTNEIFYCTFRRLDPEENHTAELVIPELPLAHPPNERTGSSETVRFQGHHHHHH
SMILES,IC50 (Human PD-L1/PD-1) [nM],"IC50 [1, 2] [nM]",IC50 ([1]; cell line of CBA not given (LK35.2-hPD-L1 or 293T-hPD-L1)) [nM]
CCCC[C@H]1C(=O)N(C)[C@@H](COc2cccc(C)c2)C(=O)N[C@@H](CCN)C(=O)N[C@H](C(=O)NCC(N)=O)CSCC(=O)N[C@@H](Cc2ccc(O)cc2)C(=O)N(C)[C@@H](C)C(=O)N[C@@H](CC(=O)O)C(=O)N2CCC[C@H]2C(=O)N[C@@H](CN)C(=O)N[C@@H](CCC(=O)O)C(=O)N2C[C@H](O)C[C@H]2C(=O)N[C@@H](Cc2c[nH]c3ccccc23)C(=O)N[C@@H](CO)C(=O)N[C@@H](Cc2c[nH]c3ccccc23)C(=O)N1C [Example 6031],0.385 to 6.74,4.78 to 72.9,–
CCCC[C@H]1C(=O)N(C)[C@@H](CCCC)C(=O)N[C@@H](CN)C(=O)N[C@H](C(=O)NCC(N)=O)CSCC(=O)N[C@@H](Cc2ccccc2)C(=O)N(C)[C@@H](C)C(=O)N[C@@H](CC(N)=O)C(=O)N2CCC[C@H]2C(=O)N[C@@H](Cc2cnc[nH]2)C(=O)N[C@@H](CC(C)C)C(=O)N(C)CC(=O)N[C@@H](Cc2c[nH]c3ccccc23)C(=O)N[C@@H](CO)C(=O)N[C@@H](Cc2c[nH]c3ccccc23)C(=O)N1C [Example 5007] ({CH2CO}-F[NMeA]NPHL[Sar]WSW[NMeNle][NMeNle][Dap]CG-NH2; thioether N-14),6.76 to 30.3,4.78 to 72.9,–
CCCC[C@H]1C(=O)N(C)[C@@H](CCCC)C(=O)N[C@@H](CCCNC(=N)N)C(=O)N[C@H](C(=O)NCC(N)=O)CSCC(=O)N[C@@H](Cc2ccccc2)C(=O)N(C)[C@@H](C)C(=O)N[C@@H](CC(N)=O)C(=O)N2CCC[C@H]2C(=O)N[C@@H](Cc2cnc[nH]2)C(=O)N[C@@H](C(C)CC)C(=O)N(C)CC(=O)N[C@@H](Cc2c[nH]c3ccccc23)C(=O)N[C@@H](CO)C(=O)N[C@@H](Cc2c[nH]c3ccccc23)C(=O)N1C (stereo partly shown) [Example 6011] ({CH2CO}-F[NMeA]NPH[Ile(3ξ)][Sar]WSW[NMeNle][NMeNle]RCG-NH2; thioether N-14),6.76 to 30.3,4.78 to 72.9,–
CCCC[C@H]1C(=O)N[C@@H](CCCNC(=N)N)C(=O)NC(C(=O)NCC(N)=O)CSCC(=O)N[C@@H](Cc2ccc(O)cc2)C(=O)N(C)[C@@H](C)C(=O)N[C@@H](CC(N)=O)C(=O)N2CCC[C@H]2C(=O)N[C@@H](Cc2cnc[nH]2)C(=O)N[C@@H](CC(C)C)C(=O)N2C[C@H](O)C[C@H]2C(=O)N[C@@H](Cc2c[nH]c3ccccc23)C(=O)N[C@@H](CO)C(=O)N[C@@H](Cc2csc3ccccc23)C(=O)N(C)[C@@H](C)C(=O)N1C (stereo partly shown) [Example 9056] ({CH2CO}-Y[NMeA]NPHL[Hyp]WS[Bta][NMeA][NMeNle]R[ξC]G-NH2; thioether N-14),0.385 to 6.74,0.158 to 4.71,–
CCCC[C@H]1C(=O)N2C[C@@H](O)C[C@@H]2C(=O)N[C@@H](CC(=O)O)C(=O)N[C@@H](C(C)C)C(=O)N(C)[C@@H](Cc2ccccc2)C(=O)N[C@@H](Cc2ccc(O)cc2)C(=O)N(C)CC(=O)N[C@@H](Cc2c[nH]c3ccccc23)C(=O)N[C@@H](Cc2ccc(O)cc2)C(=O)N[C@@H](CC(C)C)C(=O)N[C@H](C(=O)NCC(N)=O)CSCC(=O)N[C@@H](Cc2ccccc2)C(=O)N(C)[C@@H](Cc2ccccc2)C(=O)N1C [Example 3588] ({CH2CO}-F[NMeF][NMeNle][dHyp]DV[NMeF]Y[Sar]WYLCG-NH2; thioether N-13),6.76 to 30.3,0.158 to 4.71,–
CCCC[C@H]1C(=O)N[C@@H](CCCNC(=N)N)C(=O)N[C@H](C(=O)NCC(N)=O)CSCC(=O)N[C@@H](Cc2ccc(O)cc2)C(=O)N(C)[C@@H](C)C(=O)N[C@@H](CC(N)=O)C(=O)N2CCC[C@H]2C(=O)N[C@@H](Cc2cnc[nH]2)C(=O)N[C@@H](CC(C)C)C(=O)N2C[C@H](O)C[C@@H]2C(=O)N[C@@H](Cc2c[nH]c3ccccc23)C(=O)N[C@@H](CO)C(=O)N[C@@H](Cc2csc3ccccc23)C(=O)N(C)[C@@H](CCOC)C(=O)N1C [Example 9007] ({CH2CO}-Y[NMeA]NPHL[d(cisHyp)]WS[Bta][NMehSer](Me)[NMeNle]RCG-NH2; thioether N-14),0.385 to 6.74,0.158 to 4.71,–
CCCC[C@H]1C(=O)N(C)[C@@H](CCCC)C(=O)N[C@@H](CC(C)C)C(=O)N[C@H](C(=O)NCC(N)=O)CSCC(=O)N[C@@H](Cc2ccc(O)cc2)C(=O)N(C)[C@@H](C)C(=O)N[C@@H](CC(=O)O)C(=O)N2CCC[C@H]2C(=O)N[C@@H](Cc2cnc[nH]2)C(=O)N[C@@H](CC(C)C)C(=O)N2C[C@H](O)C[C@H]2C(=O)N[C@@H](Cc2c[nH]c3ccccc23)C(=O)N[C@@H](CCN)C(=O)N[C@@H](Cc2c[nH]c3ccccc23)C(=O)N1C [Example 6027] ({CH2CO}-Y[NMeA]DPHL[Hyp]W[Dab]W[NMeNle][NMeNle]LCG-NH2; thioether N-14),0.385 to 6.74,0.158 to 4.71,–
CCCC[C@H]1C(=O)N(C)[C@@H](CCCC)C(=O)N[C@@H](C)C(=O)N[C@H](C(=O)NCC(=O)O)CSCC(=O)N[C@@H](Cc2ccc(O)cc2)C(=O)N(C)[C@@H](C)C(=O)N[C@@H](CC(N)=O)C(=O)N2CCC[C@H]2C(=O)N[C@@H](Cc2cnc[nH]2)C(=O)N[C@@H](CC(C)C)C(=O)N[C@@H](CCCN)C(=O)N[C@@H](Cc2c[nH]c3ccccc23)C(=O)N[C@@H](CO)C(=O)N[C@@H](Cc2csc3ccccc23)C(=O)N1C [Example 1153],> 30.5,–,4.78 to 72.9

# Reference: patent US9850283B2, “Macrocyclic inhibitors of the PD-1/PD-L1 and CD80(B7-1)/PD-L1 protein/protein interactions” (BRISTOL-MYERS SQUIBB COMPANY, priority 2013, dated 2017)
